Results: article PMC6730544 (ACS infectious diseases, 2019)

Experiments:
Type in all cases: biochemical
[1] = molecular target: T1, LpxH (UDP-2,3-diacylglucosamine pyrophosphatase) (Escherichia coli, UniProt P43341); assay: AaLpxE-coupled malachite green assay, residual activity at […]
[2] = molecular target: T1, LpxH (UDP-2,3-diacylglucosamine pyrophosphatase); assay: as above; remark: listed apart in the source
[3] = molecular target: T1, LpxH (UDP-2,3-diacylglucosamine pyrophosphatase); assay: AaLpxE-coupled malachite green assay, dose-response

T1 sequence (P43341 whole entry): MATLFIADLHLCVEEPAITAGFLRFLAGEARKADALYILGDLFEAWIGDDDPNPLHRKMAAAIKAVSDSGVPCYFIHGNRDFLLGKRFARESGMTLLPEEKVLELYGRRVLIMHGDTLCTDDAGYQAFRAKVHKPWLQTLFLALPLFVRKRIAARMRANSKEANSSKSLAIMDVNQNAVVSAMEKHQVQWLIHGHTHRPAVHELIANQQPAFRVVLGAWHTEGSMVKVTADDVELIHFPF

SMILES	1 μM compound / Percentage Activity [1]	10 μM compound / Percentage Activity [2]	other results
CC(=O)N1CCc2cc(S(=O)(=O)N3CCN(c4cccc(-c5ccccc5)c4)CC3)ccc21 [3e, JH-LPH-25]	45 ± 10	–	–
COC(=O)CCC(=O)N1CCc2cc(S(=O)(=O)N3CCN(c4cccc(Br)c4)CC3)ccc21 [22a, JH-LPH-07]	53 ± 11	–	–
CC(=O)N1CCc2cc(S(=O)(=O)N3CCN(c4ccccc4)CC3)ccc21 [3b, JH-LPH-09]	–	32 ± 9	–
CCc1cccc(N2CCN(S(=O)(=O)c3ccc4c(c3)CCN4C(C)=O)CC2)c1 [3c, JH-LPH-24]	–	21 ± 2	–
O=C(O)CCC(=O)N1CCc2cc(S(=O)(=O)N3CCN(c4cccc(Br)c4)CC3)ccc21 [22b, JH-LPH-08]	52 ± 11	–	–
CC(=O)Nc1ccc(S(=O)(=O)N2CCN(c3cccc(C(F)(F)F)c3)CC2)cc1 [compound 11, JH-LPH-15]	–	–	activity at 10 µM ([2]; read-out: 10 μM compound / Percentage Activity): 30 ± 11%
CC(=O)N1CCc2cc(S(=O)(=O)N3CCN(c4cccc(C(C)C)c4)CC3)ccc21 [3d, JH-LPH-26]	–	29 ± 3	–
CC(=O)N1CCc2cc(S(=O)(=O)N3CCN(c4cccc(Br)c4)CC3)ccc21 [3a, JH-LPH-06]	–	–	activity at 1 µM ([1]; read-out: 1 μM compound / Percentage Activity): 26 ± 8%
CC(=O)N1CCc2cc(S(=O)(=O)N3CCN(c4cccc(C(F)(F)F)c4)CC3)ccc21 [AZ1]	–	–	IC50 [3]: 147 ± 2 nM
